According to ChEMBL document CHEMBL4020785, “Switching subtype-selectivity: Fragment replacement strategy affords novel class of peroxisome proliferator-activated receptor α/δ (PPARα/δ) dual agonists” (Bioorg Med Chem Lett, 2017):
The source made the active and inactive calls. The rule behind the calls is not given here.

Tests used:
[1] = molecular target: T1, Peroxisome proliferator-activated receptor alpha (Homo sapiens) (UniProt Q07869); experiment: Agonist activity at GAL4N fused human PPARalpha LBD expressed in HEK293 cells co-expressing TK-MH100x4-Luc after 24 hrs by luciferase reporter gene assay relative to GW7647; assay type: cell-based
T1 sequence (whole entry): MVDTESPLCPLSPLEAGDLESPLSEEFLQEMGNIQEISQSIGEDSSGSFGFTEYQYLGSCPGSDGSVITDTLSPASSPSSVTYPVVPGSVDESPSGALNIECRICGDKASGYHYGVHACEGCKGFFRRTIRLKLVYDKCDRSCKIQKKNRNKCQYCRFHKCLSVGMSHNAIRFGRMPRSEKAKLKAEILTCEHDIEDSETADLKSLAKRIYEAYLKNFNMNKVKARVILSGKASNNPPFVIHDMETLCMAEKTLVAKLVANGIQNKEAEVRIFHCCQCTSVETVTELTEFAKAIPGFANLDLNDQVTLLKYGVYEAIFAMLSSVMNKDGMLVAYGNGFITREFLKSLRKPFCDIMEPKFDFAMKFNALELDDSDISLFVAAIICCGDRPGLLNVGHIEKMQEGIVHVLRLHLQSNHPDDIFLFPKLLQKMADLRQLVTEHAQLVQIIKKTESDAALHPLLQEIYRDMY

[2] = molecular target: T2, Peroxisome proliferator-activated receptor delta (Homo sapiens) (UniProt Q03181); experiment: Agonist activity at GAL4N fused human PPARdelta LBD expressed in HEK293 cells co-expressing TK-MH100x4-Luc after 24 hrs by luciferase reporter gene assay relative to GW501516; assay type: cell-based
T2 sequence (whole entry): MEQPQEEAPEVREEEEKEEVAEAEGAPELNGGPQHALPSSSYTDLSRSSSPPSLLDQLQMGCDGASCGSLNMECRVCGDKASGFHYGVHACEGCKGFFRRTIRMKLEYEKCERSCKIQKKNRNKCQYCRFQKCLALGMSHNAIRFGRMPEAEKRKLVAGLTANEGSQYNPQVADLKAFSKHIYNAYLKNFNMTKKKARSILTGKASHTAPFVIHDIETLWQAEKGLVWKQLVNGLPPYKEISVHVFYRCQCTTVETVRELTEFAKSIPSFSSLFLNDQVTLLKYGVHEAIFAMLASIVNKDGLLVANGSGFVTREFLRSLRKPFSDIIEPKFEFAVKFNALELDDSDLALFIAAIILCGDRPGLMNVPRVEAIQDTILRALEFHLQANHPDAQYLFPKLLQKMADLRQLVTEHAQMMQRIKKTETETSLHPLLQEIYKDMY

[3] = molecular target: T3, Peroxisome proliferator-activated receptor gamma (Homo sapiens) (UniProt P37231); experiment: Agonist activity at GAL4N fused human PPARgamma LBD expressed in HEK293 cells co-expressing TK-MH100x4-Luc at less than 30 uM after 24 hrs by luciferase reporter gene assay; assay type: cell-based
T3 sequence (whole entry): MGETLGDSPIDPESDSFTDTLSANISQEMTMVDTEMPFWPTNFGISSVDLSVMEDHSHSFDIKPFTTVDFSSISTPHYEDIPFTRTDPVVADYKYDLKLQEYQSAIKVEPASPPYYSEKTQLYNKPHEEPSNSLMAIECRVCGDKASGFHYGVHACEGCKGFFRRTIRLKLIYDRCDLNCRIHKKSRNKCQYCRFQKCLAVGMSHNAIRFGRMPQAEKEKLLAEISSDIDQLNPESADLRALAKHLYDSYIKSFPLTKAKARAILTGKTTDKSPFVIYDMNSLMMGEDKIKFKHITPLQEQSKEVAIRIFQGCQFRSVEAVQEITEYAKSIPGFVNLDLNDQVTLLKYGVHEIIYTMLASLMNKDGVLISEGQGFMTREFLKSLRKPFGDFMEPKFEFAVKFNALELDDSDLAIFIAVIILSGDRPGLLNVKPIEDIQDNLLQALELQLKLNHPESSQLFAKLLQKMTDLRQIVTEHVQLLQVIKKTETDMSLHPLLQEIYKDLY

[4] = molecular target: T4, Peroxisome proliferator-activated receptor delta (Homo sapiens, UniProt Q03181); experiment: Agonist activity at GAL4N fused human PPARdelta LBD expressed in HEK293 cells co-expressing TK-MH100x4-Luc after 24 hrs by luciferase reporter gene assay; assay type: cell-based
T4 sequence (Q03181 whole entry): T2 sequence (whole entry)

[5] = molecular target: T5, Peroxisome proliferator-activated receptor alpha (Homo sapiens, UniProt Q07869); experiment: Agonist activity at GAL4N fused human PPARalpha LBD expressed in HEK293 cells co-expressing TK-MH100x4-Luc after 24 hrs by luciferase reporter gene assay; assay type: cell-based
T5 sequence (Q07869 whole entry): T1 sequence (whole entry)

[6] = molecular target: T5, Peroxisome proliferator-activated receptor alpha
[7] = molecular target: T1, Peroxisome proliferator-activated receptor alpha (Homo sapiens); experiment: Agonist activity at GAL4N fused human PPARalpha LBD expressed in HEK293 cells co-expressing TK-MH100x4-Luc at less than 30 uM after 24 hrs by luciferase reporter gene assay; assay type: cell-based
[8] = molecular target: T2, Peroxisome proliferator-activated receptor delta (Homo sapiens); experiment: Agonist activity at GAL4N fused human PPARdelta LBD expressed in HEK293 cells co-expressing TK-MH100x4-Luc at less than 30 uM after 24 hrs by luciferase reporter gene assay; assay type: cell-based
[9] = molecular target: T6, Peroxisome proliferator-activated receptor gamma (Homo sapiens, UniProt P37231); experiment: Agonist activity at GAL4N fused human PPARgamma LBD expressed in HEK293 cells co-expressing TK-MH100x4-Luc after 24 hrs by luciferase reporter gene assay; assay type: cell-based
T6 sequence (P37231 whole entry): T3 sequence (whole entry)

[10] = molecular target: T3, Peroxisome proliferator-activated receptor gamma (Homo sapiens); experiment: Agonist activity at GAL4N fused human PPARgamma LBD expressed in HEK293 cells co-expressing TK-MH100x4-Luc after 24 hrs by luciferase reporter gene assay relative to rosiglitazone; assay type: cell-based
[11] = molecular target: T7, Peroxisome proliferator-activated receptor alpha (Mus musculus, UniProt P23204); experiment: Agonist activity at 3' GAL4 DNA binding domain fused mouse PPARalpha LBD expressed in U-2 OS cells after 40 hrs by luciferase reporter gene assay; assay type: cell-based
T7 sequence (P23204 whole entry): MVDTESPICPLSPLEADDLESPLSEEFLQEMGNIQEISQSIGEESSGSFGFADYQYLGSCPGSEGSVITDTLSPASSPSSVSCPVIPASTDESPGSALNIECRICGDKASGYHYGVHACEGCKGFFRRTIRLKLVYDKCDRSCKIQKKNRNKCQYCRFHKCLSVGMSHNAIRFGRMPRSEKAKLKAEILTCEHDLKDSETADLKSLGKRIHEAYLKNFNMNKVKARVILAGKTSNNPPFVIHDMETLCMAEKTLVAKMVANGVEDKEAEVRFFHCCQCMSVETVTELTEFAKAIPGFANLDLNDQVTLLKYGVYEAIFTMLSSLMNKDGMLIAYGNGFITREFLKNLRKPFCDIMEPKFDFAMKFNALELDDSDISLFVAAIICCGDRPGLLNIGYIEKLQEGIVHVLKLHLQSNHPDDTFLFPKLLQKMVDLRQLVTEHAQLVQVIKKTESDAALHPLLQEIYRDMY

[12] = molecular target: T2, Peroxisome proliferator-activated receptor delta (Homo sapiens); experiment: Agonist activity at GAL4N fused human PPARdelta LBD expressed in HEK293 cells co-expressing TK-MH100x4-Luc at 50 uM after 24 hrs by luciferase reporter gene assay relative to control; assay type: cell-based

Efficacy [1] [%]	Efficacy [2] [%]	Activity [3]	EC50 [4] [µM]	EC50 [5] [µM]	EC50 [6] [µM]	Activity [7]	Activity [8]	EC50 [9] [µM]	Efficacy [10] [%]	EC50 [11] [µM]	Efficacy [12] [%]	SMILES
3 to 15	5 to 14	inactive	0.97	0.88								CC(=O)NC(C)c1nc(-c2ccc(OCC=C(c3ccc(Br)cc3)c3ccc(Br)cc3)cc2)no1 (stereo unspecified)
13 to 37	7 to 18	inactive	1.6	1.2								CC(=O)NC(C)c1nc(-c2ccc(OCCc3ccc(OS(C)(=O)=O)cc3)cc2)no1 (stereo unspecified)
7 to 17	2 to 9	inactive	0.45	0.47								CC(=O)NC(C)c1nc(-c2ccc(OCCN3c4ccccc4Oc4ccccc43)cc2)no1 (stereo unspecified)
					2.8							CCO[C@@H](Cc1ccc(OCCN2c3ccccc3Oc3ccccc32)cc1)C(=O)O [RAGAGLITAZAR]
17 to 27	2 to 11	inactive	0.32	0.24								CC(=O)NC(C)c1nc(-c2ccc(OCCCOc3ccc(Oc4ccccc4)cc3)cc2)no1 (stereo unspecified)
13 to 33	4 to 19	inactive	0.99	0.45								CC(=O)N[C@@H](C)c1nc(-c2ccc(OCCc3ccc(OS(C)(=O)=O)cc3)cc2)no1
		inactive				inactive	inactive					CC(=O)N[C@H](C)c1nc(-c2ccc(OCCc3ccc(OS(C)(=O)=O)cc3)cc2)no1
87 to 129	16 to 45		31	5.4				18	39 to 51			CCOC(Cc1ccc(Oc2ccc(OCc3ccccc3)cc2)cc1)C(=O)O (stereo unspecified)
122 to 186				3.8				0.36	119 to 130	1.7	38	CCO[C@@H](Cc1ccc(OCCc2ccc(OS(C)(=O)=O)cc2)cc1)C(=O)O [TESAGLITAZAR]
